Assay results taken from patent US20120225180A1, “SALTINESS-IMPROVING AGENT FOR SALTY FOOD AND DRINK” (priority 2009, published 2012).

Assay: Saltiness evaluation of shiokara (comparison evaluation of flavor by 10 panelists)
Assay type: in vivo
Conditions: for Evaluation A: the number of panelists who felt stimulation of saltiness / Evaluation B: the number of panelists who slightly felt stimulation of saltiness / Evaluation N: the number of panelists who judged that the stimulation of saltiness was reduced to mild saltiness / Flavor judgment: the number of panelists who judged it as most proper saltiness: 10 panelists
Experimental: Sedanenolide was added as a saltiness-improving agent (salty stimulation-reducing agent) of the present invention to commercially available salted squid to obtain shiokara containing sedanenolide at the concentrations shown in the following Table 1.
A: the number of panelists who felt stimulation of saltiness B: the number of panelists who slightly felt stimulation of saltiness N: the number of panelists who judged that the stimulation of saltiness was reduced to mild saltiness Flavor judgment: the number of panelists who judged it as most proper saltiness

[1] = shiokara containing 0.01 ppb sedanenolide
[2] = shiokara containing 0.01 ppm sedanenolide
[3] = shiokara containing 0.1 ppb sedanenolide
[4] = shiokara containing 0.1 ppm sedanenolide
[5] = shiokara containing 1 ppb sedanenolide
[6] = shiokara containing 1 ppm sedanenolide
[7] = shiokara containing 1 ppt sedanenolide
[8] = shiokara containing 10 ppm sedanenolide

## CCCC[C@@H]1OC(=O)C2=C1CCC=C2 [sedanenolide]
Amount of sedanenolide about 0.1 ppb to 1 ppm
  saltiness improvement, overall result: particularly good results
Low concentration of 0.01 ppb sedanenolide
  improvement in stimulation of saltiness: some panelists felt some improvement in stimulation of saltiness
[1]
  Evaluation A: the number of panelists who felt stimulation of saltiness: 6
  Evaluation B: the number of panelists who slightly felt stimulation of saltiness: 4
  Evaluation N: the number of panelists who judged that the stimulation of saltiness was reduced to mild saltiness: 0
  Flavor judgment: the number of panelists who judged it as most proper saltiness: 0
Shiokara containing 0.01 ppb to 10 ppm of sedanenolide
  stimulation of saltiness: improved
[2]
  Evaluation A: the number of panelists who felt stimulation of saltiness: 2
  Evaluation B: the number of panelists who slightly felt stimulation of saltiness: 2
  Evaluation N: the number of panelists who judged that the stimulation of saltiness was reduced to mild saltiness: 6
  Flavor judgment: the number of panelists who judged it as most proper saltiness: 3
[3]
  Evaluation A: the number of panelists who felt stimulation of saltiness: 2
  Evaluation B: the number of panelists who slightly felt stimulation of saltiness: 7
  Evaluation N: the number of panelists who judged that the stimulation of saltiness was reduced to mild saltiness: 1
  Flavor judgment: the number of panelists who judged it as most proper saltiness: 0
[4]
  Evaluation A: the number of panelists who felt stimulation of saltiness: 1
  Evaluation B: the number of panelists who slightly felt stimulation of saltiness: 2
  Evaluation N: the number of panelists who judged that the stimulation of saltiness was reduced to mild saltiness: 7
  Flavor judgment: the number of panelists who judged it as most proper saltiness: 4
[5]
  Evaluation A: the number of panelists who felt stimulation of saltiness: 3
  Evaluation B: the number of panelists who slightly felt stimulation of saltiness: 2
  Evaluation N: the number of panelists who judged that the stimulation of saltiness was reduced to mild saltiness: 5
  Flavor judgment: the number of panelists who judged it as most proper saltiness: 0
[6]
  Evaluation A: the number of panelists who felt stimulation of saltiness: 0
  Evaluation B: the number of panelists who slightly felt stimulation of saltiness: 1
  Evaluation N: the number of panelists who judged that the stimulation of saltiness was reduced to mild saltiness: 9
  Flavor judgment: the number of panelists who judged it as most proper saltiness: 2
[7]
  Evaluation A: the number of panelists who felt stimulation of saltiness: 10
  Evaluation B: the number of panelists who slightly felt stimulation of saltiness: 0
  Evaluation N: the number of panelists who judged that the stimulation of saltiness was reduced to mild saltiness: 0
  Flavor judgment: the number of panelists who judged it as most proper saltiness: 0
[8]
  Evaluation A: the number of panelists who felt stimulation of saltiness: 0
  Evaluation B: the number of panelists who slightly felt stimulation of saltiness: 1
  Evaluation N: the number of panelists who judged that the stimulation of saltiness was reduced to mild saltiness: 9
  Flavor judgment: the number of panelists who judged it as most proper saltiness: 1
